For assay [1], the system named is C. albicans 4175, C. albicans 5112 and C. albicans SC5314. As to the kind of experiment: TUNEL assay for DNA damage. It is filed as cell-based, Candida albicans. Conditions: 0.5 × MIC, 1 × MIC and 2 × MIC, compared to the negative control; dose dependent. The procedure: To study the effect of test compounds on apoptotic markers protoplasts were prepared as described previously, with modifications. Briefly, mid-exponential phase cells were harvested and exposed to various concentrations of test compounds (0.5 × MIC, 1 × MIC and 2×MIC) for 3 h. The cells were then washed twice with protoplast buffer- I (1 M sorbitol, 50 mM tris base, 10 mM MgCl2 and 30 mM DTT) and incubated in the same buffer for 15 minutes at 25 °C, followed by centrifugation at 1500 rpm for 5 minutes. Supernatant was removed and cells were incubated with buffer- II (1 M sorbitol, 50 mM tris base, 10 mM MgCl2 and 1 mM DTT) supplemented with lyticase enzyme (≥1 µg/mL) used to digest the cell wall for 1 h at 25 °C. Buffer- II were removed by centrifugation and then cells were incubated with buffer- III (1 M sorbitol, 50 mM tris base and 10 mM MgCl2) for 20 minutes at room temperature. After the incubation cells were again centrifuged at 1500 rpm for 5 minutes and supernatant was discarded. […]
TUNEL assay was used to detect the DNA damage, a hallmark for late stages of apoptosis. […] Slides were examined by fluorescence microscopy using Zeiss Laser Scanning Confocal Microscope (LSM) 780 (Carl Zeiss Microscopy, Jena, Germany) with an excitation wavelength of 495 nm and emission wavelength of 519 nm. […] Images were further analyzed by using software ImageJ.

The test system of assay [2] is Candida albicans 4135. Briefly: Broth microdilution antifungal susceptibility (MIC/MFC). Conditions: strain 4135, FLC resistant. It is filed as cell-based. The protocol: (§1) In this study, 10 clinical Candida albicans isolates, comprising of 5 fluconazole susceptible and 5 fluconazole resistant, were used. C. albicans SC5314 was also used as a control laboratory strain. Clinical strains used in this study were stored at −80 °C supplemented with 20% glycerol in the Department of Clinical Microbiology and Infectious Diseases, University of the Witwatersrand, Johannesburg and were previously collected under the ethical clearance number M000402, obtained from the Human Research Ethics Committee, University of the Witwatersrand. For experimental purpose each strain from glycerol stock was recovered on Sabouraud Dextrose (SDA) agar plates at 37 °C for 24 h.
(§2) Minimum Inhibitory Concentration (MIC) and Minimum Fungicidal Concentrations (MFC) of all newly synthesized eugenol-tosylate congeners (ETC-1–ETC-7) against C. albicans strains were determined by broth microdilution assay in accordance with the approved guidelines described by Clinical and Laboratory Standards Institute (CLSI) guidelines M27-A[38]. The test compounds were prepared in 1% DMSO to a stock concentration of 8192 µg/ml. Two-fold dilutions of test compounds (100 µL) were prepared in 96-well flat-bottom microtiter plates, inoculated with 100 µl of inoculum (1 × 10^6 cells/mL) and incubated at 37 °C for 24 hours. In every set of experiment, positive control (fluconazole), negative vehicle control (1% DMSO) and culture control (media and cells only) were included. MIC’s were determined visibly as the lowest concentration of the test compounds that inhibited growth of test organism. To determine MFC, each well without visible growth was sub-cultured onto agar plates. Concentration in the first well with no growth on plate was taken as MFC. […] The experiment was performed in triplicate to validate the results.

The test system of assay [3] is Candida albicans 4179. Described as above. It counts as cell-based. Conditions: strain 4179, FLC susceptible. The protocol: as §1, §2
The subject of assay [4] is Candida albicans 5112. The description is as above. Conditions: strain 5112, FLC resistant. It is filed as cell-based. The protocol:
as §1, §2

Assay [5] relates to Candida albicans 4175. The description is as above. Conditions: Candida albicans, strain 4175, FLC susceptible. It is filed as cell-based. The protocol: as §1, §2
Assay [6] deals with Candida albicans SC5314. The description is as above. It is filed as cell-based. Conditions: SC5314, FLC susceptible. The protocol: as §1, §2
Assay [7] relates to Candida albicans 4576. The description is as above. It counts as cell-based. Conditions: strain 4576, FLC susceptible. The procedure: as §1, §2
The subject of assay [8] is Candida albicans 4122. The description is as above. It is filed as cell-based. Conditions: strain 4122, FLC resistant. The procedure: as §1, §2
Assay [9] has as its system Candida albicans 4106. Described as above. It is filed as cell-based. Conditions: strain 4106, FLC resistant. The procedure:
as §1, §2

Assay [10] relates to Candida albicans 4180. The assay is described as above. It counts as cell-based. Conditions: strain 4180, FLC susceptible. The protocol: as §1, §2
Assay [11] relates to Candida albicans 4324. The description is as above. It counts as cell-based. Conditions: strain 4324, FLC resistant. The protocol:
as §1, §2

For assay [12], the system named is Candida albicans 4563. The description is as above. Conditions: strain 4563, FLC susceptible. It is filed as cell-based. The procedure:
as §1, §2

Structures are written as SMILES. In brackets after ≈: the same amount, converted by molar mass.

The MFC is the smallest concentration meeting the test's criterion for killing the fungus. In general, MIC refers to the least concentration at which growth counts as inhibited.

In the case of `C=CCc1ccc(OS(=O)(=O)c2ccc(C(=O)O)cc2)c(OC)c1` [ETC-7, 4-{[2-methoxy-4-(prop-2-en-1-yl)phenoxy]sulfonyl}benzoic acid], the “TUNEL positive nuclei (DNA fragmentation)” value in assay [1] was “significant increase in proportion of TUNEL positive nuclei”. Also, the minimum fungicidal concentration (MFC) in assay [2] was 8 µg/mL (≈ 23 µM); in [3], 4 µg/mL (≈ 11.5 µM); in assay [4], 16 µg/mL (≈ 45.9 µM); in assay [5], 2 µg/mL (≈ 5.74 µM); in assay [6], 2 µg/mL (≈ 5.74 µM); in [7] it was 4 µg/mL (≈ 11.5 µM). For the same molecule, the MFC in [8] came to 16 µg/mL (≈ 45.9 µM); in [9], 4 µg/mL (≈ 11.5 µM); in assay [10], 8 µg/mL (≈ 23 µM); in [11], 8 µg/mL (≈ 23 µM); in assay [12] it was 2 µg/mL (≈ 5.74 µM). Besides, the MIC in assay [2] (37 °C, 24 h) is 4 µg/mL (≈ 11.5 µM); in [3] (37 °C, 24 h), 2 µg/mL (≈ 5.74 µM); in [4] (37 °C, 24 h) it was 8 µg/mL (≈ 23 µM); in [5] (37 °C, 24 h, read-out: MIC), 1 µg/mL (≈ 2.87 µM); in assay [6] (37 °C, 24 h), 1 µg/mL (≈ 2.87 µM); in assay [7] (37 °C, 24 h), 2 µg/mL (≈ 5.74 µM). In addition, the MIC in assay [8] (37 °C, 24 h) is 8 µg/mL (≈ 23 µM); in assay [9] (37 °C, 24 h), 2 µg/mL (≈ 5.74 µM); in assay [10] (37 °C, 24 h), 4 µg/mL (≈ 11.5 µM); in assay [11] (37 °C, 24 h), 4 µg/mL (≈ 11.5 µM); in assay [12] (37 °C, 24 h) it was 1 µg/mL (≈ 2.87 µM).

These data come from paper PMC6985109, “Cellular apoptosis and necrosis as therapeutic targets for novel Eugenol Tosylate Congeners against Candida albicans” (Scientific Reports, 2020).
